# Source: EPA's ToxRefDB 2
# Experiments:
# rat [1] = details: Subchronic oral toxicity in rodents, sprague dawley, Gavage/Intubation, dose end: 6 week, group: systemic
# dog [2] = details: Subchronic oral toxicity in nonrodent, beagle, Gavage/Intubation, dose end: 6 week, group: systemic
# rat [3] = details: Sub-acute repeat dose toxicity, wistar, Oral, Gavage/Intubation, dose end: 28 day
# rat [4] = details: Chronic toxicity, sprague dawley, Oral, Gavage/Intubation, dose end: 39 week, group: systemic
# mouse [5] = details: Combined chronic toxicity/carcinogenicity; other; Oral; Gavage/Intubation; dose end: 10 month; group: systemic; systemic / pathology microscopic / liver / neoplastic nodule + systemic / pathology microscopic / liver / dysplasia
# rat [6] = details: Sub-acute repeat dose toxicity, other, Oral, Gavage/Intubation, dose end: 30 day
# dog [7] = details: Chronic toxicity, beagle, Oral, Capsule, dose end: 40 week, group: systemic
# mouse [8] = details: Subchronic oral toxicity in rodents, b6c3f1, Feed, dose end: 13 week, group: systemic, systemic / in life observation / body weight / body weight
# mouse [9] = details: Carcinogenicity, b6c3f1, Oral, Feed, dose end: 2 year, group: systemic
# rat [10] = details: Subchronic oral toxicity in rodents, fischer, Feed, dose end: 13 week, group: systemic
# rat [11] = details: Combined chronic toxicity/carcinogenicity; fischer; Oral; Feed; dose end: 2 year; group: systemic; systemic / pathology microscopic / liver / degeneration + systemic / pathology microscopic / liver / hyperplasia + systemic / pathology …
# hamster [12] = details: Carcinogenicity, golden syrian, Oral, Feed, dose end: 80 week, group: systemic
# rat [13] = details: Combined chronic toxicity/carcinogenicity, wistar, Oral, Feed, dose end: 104 week, group: systemic
# hamster [14] = details: Subchronic oral toxicity in rodents, golden syrian, Feed, dose end: 13 week, group: systemic
# hamster [15] = details: Subchronic oral toxicity in rodents, golden syrian, Feed, dose end: 90 day, group: systemic, systemic / clinical chemistry / cholesterol / cholesterol + systemic / clinical chemistry / creatinine / creatinine + systemic / clinical …
# dog [16] = details: Subchronic oral toxicity in nonrodent, beagle, Capsule, dose end: 90 day, group: systemic
# dog [17] = details: Chronic toxicity, beagle, Oral, Capsule, dose end: 52 week, group: systemic
# rat [18] = details: Prenatal developmental toxicity study, wistar, Oral, Gavage/Intubation, dose end: 16 GD
# rat [19] = details: Subchronic oral toxicity in rodents, wistar, Feed, dose end: 90 day, group: systemic, systemic / hematology / erythrocyte (rbc) count differential / erythrocyte (rbc) + systemic / hematology / hematocrit (hct) / hematocrit (…
# rat [20] = details: Prenatal developmental toxicity study, wistar, Oral, Gavage/Intubation, dose end: 16 GD; remark: listed apart in the source
# rabbit = details: Prenatal developmental toxicity study; new zealand white; Oral; Gavage/Intubation; dose end: 19 GD; group: maternal; reproductive / reproductive performance / aborted / aborted + reproductive / reproductive performance / resorptions / resorptions + systemic…
# [21] = systemic / clinical chemistry / bilirubin / total bilirubin + systemic / hematology / neutrophils / neutrophils + systemic / in life …
# [22] = systemic / in life observation / body weight / body weight + systemic / in life observation / body weight / body weight gain + systemic / in…
# [23] = systemic / in life observation / clinical signs / feces, discoloration + systemic / in life observation / clinical signs / salivation + …
# [24] = systemic / in life observation / clinical signs / salivation + systemic / organ weight / epididymis / absolute + systemic / organ weight / …
# [25] = group: maternal, reproductive / reproductive performance / estrous cycle / abnormal
# [26] = group: systemic, systemic / clinical chemistry / albumin / albumin + systemic / clinical chemistry / cholesterol / cholesterol + systemic / clinical …
# [27] = group: systemic, systemic / clinical chemistry / cholesterol / cholesterol + systemic / clinical chemistry / thyroid stimulating hormone (thyrotropin) (tsh…
# [28] = systemic / organ weight / [other] / absolute + systemic / organ weight / [other] / relative to body weight + systemic / pathology gross / …
# [29] = group: maternal, reproductive / reproductive performance / estrous cycle / abnormal + reproductive / reproductive performance / estrous cycle / length
# [30] = group: maternal, reproductive / reproductive performance / estrous cycle / length
# [31] = group: systemic, systemic / clinical chemistry / follicle stimulating hormone (fsh) / follicle stimulating hormone (fsh) + systemic / in life observation / …
# [32] = group: systemic, systemic / organ weight / adrenal gland / relative to body weight + systemic / organ weight / ovary / relative to body weight + systemic / …
# [33] = systemic / in life observation / body weight / body weight gain + systemic / pathology gross / liver / fat vacuolation + systemic / …
# [34] = systemic / pathology microscopic / blood / [other] + systemic / clinical chemistry / alanine aminotransferase (alt/sgpt) / alanine …
# [35] = systemic / pathology microscopic / liver / necrosis
# [36] = systemic / pathology microscopic / liver / necrosis + systemic / pathology microscopic / liver / adenoma/carcinoma combined + systemic / …
# [37] = systemic / in life observation / body weight / body weight
# [38] = systemic / in life observation / body weight / body weight + systemic / in life observation / food consumption / food consumption + systemic…
# [39] = systemic / pathology microscopic / liver / adenoma + systemic / pathology microscopic / liver / hemangioma + systemic / pathology …
# [40] = systemic / pathology microscopic / ovary / sex cord stromal tumor, benign
# [41] = systemic / in life observation / body weight / body weight gain + systemic / in life observation / food consumption / food consumption + …
# [42] = systemic / in life observation / body weight / body weight gain + systemic / organ weight / liver / absolute + systemic / clinical chemistry…
# [43] = systemic / clinical chemistry / aminopyrine-n-demethylase / aminopyrine-n-demethylase
# [44] = systemic / clinical chemistry / alanine aminotransferase (alt/sgpt) / alanine aminotransferase (alt/sgpt) + systemic / organ weight / liver…
# [45] = group: developmental, developmental / developmental malformation / bone / incomplete ossification + developmental / developmental malformation / bone / [other] + …
# [46] = group: maternal, systemic / in life observation / body weight / body weight + systemic / in life observation / food consumption / food consumption + systemic…
# [47] = group: developmental, developmental / developmental malformation / bone / bipartite ossification + developmental / developmental malformation / bone / delayed …
# [48] = group: maternal, systemic / in life observation / food consumption / food consumption + systemic / in life observation / mortality / mortality + reproductive…
smiles,measurement,setting,value
N#Cc1ccc(N(CC(N)=O)CC(F)(F)F)cc1C(F)(F)F,LOAEL,rat [1]; [21],> 30 mg/kg/day
same,NOAEL,rat [1]; [21],≥ 30 mg/kg/day
same,LEL,rat [1]; [22],1 mg/kg/day
same,NEL,rat [1]; [22],< 1 mg/kg/day
same,LOAEL,dog [2]; [23],> 3 mg/kg/day
same,NOAEL,dog [2]; [23],≥ 3 mg/kg/day
same,LEL,dog [2]; [24],0.3 mg/kg/day
same,NEL,dog [2]; [24],< 0.3 mg/kg/day
C[C@]12CCC(=O)C=C1CC[C@@H]1[C@@H]2CC[C@@]2(C)[C@H]1CC[C@]2(C)O [17-Methyltestosterone],LEL,rat [3]; [25],100 mg/kg/day
same,LOAEL,rat [3]; [25],> 600 mg/kg/day
same,NEL,rat [3]; [25],10 mg/kg/day
same,NOAEL,rat [3]; [25],≥ 600 mg/kg/day
same,LOAEL,rat [3]; [26],> 200 mg/kg/day
same,NOAEL,rat [3]; [26],≥ 200 mg/kg/day
same,LEL,rat [3]; [27],10 mg/kg/day
same,NEL,rat [3]; [27],< 10 mg/kg/day
same,LOAEL,rat [4]; [28],> 40 mg/kg/day
same,NEL,rat [4]; [28],2 mg/kg/day
same,NOAEL,rat [4]; [28],≥ 40 mg/kg/day
same,LEL,rat [4]; systemic / pathology gross / testes / reduced size + systemic / in life observation / body weight / body weight gain + systemic / in life …,10 mg/kg/day
same,LEL,mouse [5],5 mg/kg/day
same,LOAEL,mouse [5],> 5 mg/kg/day
same,NEL,mouse [5],< 5 mg/kg/day
same,NOAEL,mouse [5],≥ 5 mg/kg/day
same,LOAEL,rat [6]; [29],> 80 mg/kg/day
same,NOAEL,rat [6]; [29],≥ 80 mg/kg/day
same,LEL,rat [6]; [30],5 mg/kg/day
same,NEL,rat [6]; [30],< 5 mg/kg/day
same,LOAEL,rat [6]; [31],> 80 mg/kg/day
same,NOAEL,rat [6]; [31],≥ 80 mg/kg/day
same,LEL,rat [6]; [32],5 mg/kg/day
same,NEL,rat [6]; [32],< 5 mg/kg/day
same,LOAEL,dog [7]; [33],> 6 mg/kg/day
same,NOAEL,dog [7]; [33],≥ 6 mg/kg/day
same,LEL,dog [7]; [34],2 mg/kg/day
same,NEL,dog [7]; [34],< 2 mg/kg/day
O=C(O)C1C(C(=O)O)C2(Cl)C(Cl)=C(Cl)C1(Cl)C2(Cl)Cl (stereo not drawn) [Chlorendic acid],LEL,mouse [8],188 mg/kg/day
same,LOAEL,mouse [8],188 mg/kg/day
same,NEL,mouse [8],< 188 mg/kg/day
same,NOAEL,mouse [8],< 188 mg/kg/day
same,LOAEL,mouse [9]; [35],89 mg/kg/day
same,NOAEL,mouse [9]; [35],< 89 mg/kg/day
same,LEL,mouse [9]; [36],89 mg/kg/day
same,NEL,mouse [9]; [36],< 89 mg/kg/day
same,LEL,rat [10]; [37],63 mg/kg/day
same,LOAEL,rat [10]; [37],63 mg/kg/day
same,NEL,rat [10]; [38],31 mg/kg/day
same,NOAEL,rat [10]; [38],31 mg/kg/day
same,LEL,rat [11],27 mg/kg/day
same,LOAEL,rat [11],27 mg/kg/day
same,NEL,rat [11],< 27 mg/kg/day
same,NOAEL,rat [11],< 27 mg/kg/day
CCO/N=C(\CC)C1=C(O)CC(c2c(C)cc(C)cc2C)CC1=O (stereo not drawn) [Tralkoxydim],LOAEL,hamster [12]; [39],> 672 mg/kg/day
same,NOAEL,hamster [12]; [39],≥ 672 mg/kg/day
same,LEL,hamster [12]; [40],27.8 mg/kg/day
same,NEL,hamster [12]; [40],< 27.8 mg/kg/day
same,LOAEL,rat [13]; [41],118 mg/kg/day
same,NEL,rat [13]; [41],2.3 mg/kg/day
same,NOAEL,rat [13]; [41],23.1 mg/kg/day
same,LEL,rat [13]; systemic / pathology microscopic / pituitary gland / adenoma,23.1 mg/kg/day
same,LOAEL,hamster [14]; systemic / in life observation / body weight / body weight gain + systemic / organ weight / liver / absolute,650 mg/kg/day
same,NEL,hamster [14]; [42],122 mg/kg/day
same,NOAEL,hamster [14]; [42],328 mg/kg/day
same,LEL,hamster [14]; systemic / pathology microscopic / liver / proliferation,328 mg/kg/day
same,LEL,hamster [15],337 mg/kg/day
same,LOAEL,hamster [15],337 mg/kg/day
same,NEL,hamster [15],41 mg/kg/day
same,NOAEL,hamster [15],41 mg/kg/day
same,LEL,dog [16]; [43],0.5 mg/kg/day
same,LOAEL,dog [16]; [43],5 mg/kg/day
same,NEL,dog [16]; [43],< 0.5 mg/kg/day
same,NOAEL,dog [16]; systemic / clinical chemistry / aminopyrine-n-demethylase / aminopyrine-n-demethylase + systemic / clinical chemistry / albumin / albumin + …,0.5 mg/kg/day
same,LEL,dog [17]; [44],5 mg/kg/day
same,LOAEL,dog [17]; [44],5 mg/kg/day
same,NOAEL,dog [17]; [44],0.5 mg/kg/day
same,NEL,dog [17]; systemic / clinical chemistry / cholesterol / cholesterol + systemic / clinical chemistry / protein / protein + systemic / clinical …,0.5 mg/kg/day
same,LOAEL,"rat [18]; group: developmental, developmental / developmental malformation / bone / incomplete ossification",30 mg/kg/day
same,LEL,"rat [18]; group: developmental, developmental / developmental malformation / bone / incomplete ossification + developmental / developmental malformation / bone / [other]",30 mg/kg/day
same,NEL,rat [18]; [45],3 mg/kg/day
same,NOAEL,rat [18]; [45],3 mg/kg/day
same,LEL,rat [18]; [46],200 mg/kg/day
same,LOAEL,rat [18]; [46],200 mg/kg/day
same,LEL,rat [19],205 mg/kg/day
same,LOAEL,rat [19],205 mg/kg/day
same,NEL,rat [19],20.5 mg/kg/day
same,NOAEL,rat [19],20.5 mg/kg/day
same,LOAEL,rat [20]; [47],30 mg/kg/day
same,NEL,rat [20]; [47],1 mg/kg/day
same,NOAEL,rat [20]; [47],3 mg/kg/day
same,LEL,"rat [20]; group: developmental, developmental / developmental malformation / bone / delayed ossification",3 mg/kg/day
same,LOAEL,"rat [20]; group: maternal, systemic / in life observation / food consumption / food consumption + systemic / in life observation / mortality / mortality",200 mg/kg/day
same,LEL,rat [20]; [48],200 mg/kg/day
same,NEL,rat [20]; [48],30 mg/kg/day
same,NOAEL,rat [20]; [48],30 mg/kg/day
same,LEL,rabbit,100 mg/kg/day
same,LOAEL,rabbit,100 mg/kg/day
same,NEL,rabbit,20 mg/kg/day
same,NOAEL,rabbit,20 mg/kg/day
